From patent US11242337B2, “Compounds useful for treating gastrointestinal tract disorders” (Ardelyx, Inc., priority 2017, dated 2022)

Assays:
[1] = test system: gastrointestinal transit; test: Restoration of gastrointestinal motility in opioid induced constipation (loperamide); type: in vivo, mice; conditions: vehicle orally, loperamide (0.3 to 6 mg/kg) subcutaneously, 30-minute period
Protocol: Approximately eight-week old, female, CD1 […] are purchased from Envigo (Livermore, Calif.), are housed 4 per cage and acclimated for at least 48 hours before study initiation. Animals are fed standard laboratory rodent chow Harlan Teklad Global 2018 (Madison, Wis.). Animals have ad libitum access to food and water for the duration of the acclimation period and are maintained in a temperature and humidity controlled room on a standard light/dark cycle of 6 AM to 6 PM. Following an overnight fast, with free access to water, animals are dosed by oral gavage with varying doses of test compound or vehicle (3 mM HCl, 0.01% Tween80), at a dose volume of 5 mL/kg. […] For an individual animal, the length travels by the Evans Blue dye front is divided by the length of the whole small intestine, measured from the pylorus to the cecum, and multiplied by 100, to provide the distance of the small intestine travelled by the dye as a percentage.

[2] = human absorption data, from Ertl et al., J. Med. Chem, 2000; cited from earlier work

Row | SMILES | length of the small intestine travelled by the Evans Blue dye front [1] [%] | % FA [2] [%]
1 | CN(C)C(=O)C(CCN1CCC(O)(c2ccc(Cl)cc2)CC1)(c1ccccc1)c1ccccc1 [loperamide, reference compound] | ~25 | 
2 | OC[C@@H](O)[C@@H](O)[C@H](O)[C@H](O)CO [mannitol, reference compound] |  | 26
3 | C=CCc1ccccc1OCC(O)CNC(C)C (stereo not drawn) [alprenolol] |  | 96
